A short description of data set [1]: Cytotoxicity assay, Cell-Titer-Glo, HeLa-CD4-LTR-LacZ. The note with it: human, hela-cd4-ltr-lacz cells. The method, then:
(§1) Next, the activity of these leads against HIV infection was evaluated using the reporter cell line HeLa-CD4-LTR-LacZ, which stably expresses the β-galactosidase (β-Gal) gene under the control of the HIV 5′ LTR. The HIV NL4.3 strain was used for these studies and β-Gal activity was measured 72 hrs post infection (FIG. 3A). Cytotoxicity assays using Cell-Titer-Glo were performed in parallel to assess cell viability (FIG. 3A). […] Their anti-HIV activity was further assessed in acute replication of Jurkat T cells with the NL4.3 strain (FIG. 3A). […] These OM10.1 cells contain a single integrated wild-type provirus, while ACH-2 cells contain a single integrated provirus with a TAR mutation C37T, defective Tat-TAR feedback loop (FIG. 3B).

A further data set deals with HIV NL4.3 strain. Description: HIV infectivity assay, reporter cell line HeLa-CD4-LTR-LacZ, β-Gal activity (Tat protein inhibition). In kind it is cell-based, HIV-1 (NL4.3). The method, then:
as §1

Setting [2] is: Infectivity CC50, HeLa-CD4-LTR-LacZ, analogs of TT-44856 (Table 3).
Setting [3] is: Human immunodeficiency virus 1, read-out: Infectivity IC50, HeLa-CD4-LTR-LacZ, analogs of TT-44856 (Table 3).
The mark [4] stands for this setting: Infectivity CC50, HeLa-CD4-LTR-LacZ, analogs of TT-44863 (Table 2).
Setting [5] is: Human immunodeficiency virus 1, read-out: Infectivity IC50, HeLa-CD4-LTR-LacZ, analogs of TT-44863 (Table 2).
[6] abbreviates: Infectivity CC50, HeLa-CD4-LTR-LacZ, analogs of TT-44881 (Table 1).
Where [7] appears, read: Human immunodeficiency virus 1, read-out: Infectivity IC50, HeLa-CD4-LTR-LacZ, analogs of TT-44881 (Table 1).

Our source for the CC50 and IC50 values is US20260355184A1, “SMALL MOLECULE DEGRADERS OF HIV-1 TAT PROTEIN” (priority 2022, published 2026).

By CC50 is commonly meant the concentration giving 50% cytotoxicity. High values mean lower toxicity to the cells, low ones greater toxicity to the cells. The IC50 is the concentration needed to halve the response being measured.

Where two headings read alike, the source gives them in different places. A value given as a limit tells only on which side of the number the result lay.

In turn, `CCCC(=O)NCc1cn(CCCNC(=O)C(C)(c2ccccc2)c2ccccc2)cn1` [3-62] yielded a CC50 in data set [1] (setting [2]) above 100 µM. Besides, the IC50 in the data set with HIV NL4.3 strain (setting [3]) is above 100 µM.

In the case of `COc1ccc(C(F)(F)F)cc1CNC(=O)Cn1cc(C(F)(F)F)ccc1=O` [compound 46960], the CC50 in data set [1] (setting [4]) was above 100 µM. In addition, in the data set with HIV NL4.3 strain (setting [5]), the IC50 is above 100 µM.

`COc1ccc(C#N)cc1NC(=O)Cn1cc(C)cc(Cl)c1=O` [compound 46946] registered a CC50 in data set [1] (setting [4]) above 50 µM. In addition, the IC50 in the data set with HIV NL4.3 strain (setting [5]) is above 50 µM.

As to `CN1CCN(CCNC(=O)C(C)(c2ccccc2)c2ccccc2)CC1` [3-51], the CC50 in data set [1] (setting [2]) is above 100 µM. Also, the half-maximal inhibitory concentration (IC50) with HIV NL4.3 strain (setting [3]) was above 100 µM.

Turning to `O=C(NCCCn1ccnc1)C1(O)c2ccccc2-c2ccccc21` [3-36], the CC50 in data set [1] was above 100 µM. Further, the IC50 in the data set on HIV NL4.3 strain (Human immunodeficiency virus 1, read-out: Infectivity IC50) lay in the range of 20 to 50 µM.

As to `COc1ccc(OC)c(NC(=O)Cn2cc(C(F)(F)F)cc(Cl)c2=O)c1` [compound 46868], the CC50 in data set [1] (setting [4]) was above 100 µM. Further, the IC50 in the data set with HIV NL4.3 strain (setting [5]) was above 100 µM.

Consider `CCC(C(=O)NCCCn1ccnc1)(c1ccccc1)c1ccccc1` [3-49], for which the CC50 in data set [1] (setting [2]) was above 100 µM. For the same molecule, the 50% inhibitory concentration (IC50) in the data set with HIV NL4.3 strain (setting [3]) fell in the range of 1 to 10 µM.

In the case of `COCCOc1ccccc1NC(=O)Cn1cc(C(F)(F)F)cc(Cl)c1=O` [compound 46624], in data set [1] (setting [4]), the CC50 was above 100 µM. The IC50 with HIV NL4.3 strain (setting [5]) was above 100 µM.

For the molecule `COc1ccc(C(F)(F)F)cc1-c1noc(Cn2cc(C(F)(F)F)ccc2=O)n1` [compound 47199], in data set [1] (setting [4]), the cytotoxic concentration (CC50) is above 50 µM. Also, the IC50 in the data set with HIV NL4.3 strain (setting [5]) is above 50 µM.

`CC(C)c1nn(-c2ccccc2)cc1C(=O)NCCCN1CCCC1=O` [compound 47092] yielded a CC50 in data set [1] (setting [6]) above 100 µM. Also, the IC50 with HIV NL4.3 strain (setting [7]) is above 100 µM.

`CCC(C(=O)NCCCn1ccnc1)c1ccccc1` (centres unmarked) [3-72] gave a CC50 in data set [1] (setting [2]) above 100 µM. Moreover, in the data set on HIV NL4.3 strain (setting [3]), the IC50 was above 100 µM.

`NC(C(=O)NCCCn1ccnc1)(c1ccccc1)c1ccccc1` [3-42] came in with a CC50 in data set [1] (setting [2]) above 100 µM. For the same molecule, in the data set with HIV NL4.3 strain (setting [3]), the IC50 is 10 to 30 µM.

In data set [1] (setting [4]), `COc1ccc(C(F)(F)F)cc1NC(=O)Cn1cc(C(F)(F)F)cc(F)c1=O` [compound 47033] came in with a CC50 of 50 to 100 µM. Further, the IC50 with HIV NL4.3 strain (setting [5]) was in the range of 1 to 10 µM.

The molecule `COc1cc(C(F)(F)F)ccc1NC(=O)Cn1cc(C(F)(F)F)cc(Cl)c1=O` [compound 46808] registered a CC50 in data set [1] (setting [4]) above 100 µM. Besides, in the data set on HIV NL4.3 strain (setting [5]), the IC50 lay in the range of 1 to 30 µM.

In data set [1] (setting [6]), `NS(=O)(=O)c1ccc(CCNC(=O)c2cn(-c3ccccc3)c3ccccc23)cc1` [compound 41799] registered a CC50 above 100 µM. The IC50 in the data set with HIV NL4.3 strain (setting [7]) fell in the range of 5 to 20 µM.

For the molecule `O=C(O)COCCOCCOc1ccc(C(F)(F)F)cc1NC(=O)Cn1cc(C(F)(F)F)cc(Cl)c1=O` [compound 48], the CC50 in data set [1] (setting [4]) was above 100 µM. Also, the IC50 in the data set with HIV NL4.3 strain (setting [5]) was above 100 µM.

`O=C(NCCCN1CCCC1=O)c1n[nH]c2ccccc12` [compound 46826] had a CC50 in data set [1] (setting [6]) above 100 µM. Besides, in the data set on HIV NL4.3 strain (setting [7]), the IC50 was above 100 µM.

Consider `CC(NC(=O)C(C)(c1ccccc1)c1ccccc1)c1ccccc1` (centres unmarked) [3-47], for which the CC50 in data set [1] (setting [2]) was above 100 µM. In addition, in the data set with HIV NL4.3 strain (setting [3]), the IC50 was in the range of 10 to 30 µM.

Regarding `O=C(NCCCN1CCCC1=O)c1nn(-c2ccccc2)c2c1CCCCC2` [GB-03], the CC50 in data set [1] (setting [6]) is above 100 µM. Further, the IC50 in the data set on HIV NL4.3 strain (setting [7]) is above 100 µM.

As to `COc1ccc(C(F)(F)F)cc1NC(=O)CCn1cc(C(F)(F)F)cc(Cl)c1=O` [compound 47020], the CC50 in data set [1] (setting [4]) is above 25 µM. Moreover, the IC50 in the data set with HIV NL4.3 strain (setting [5]) is above 25 µM.

In data set [1] (setting [6]), `Cc1cc(NCCCN2CCCC2=O)n2nc(C)nc2n1` [compound 46930] yielded a CC50 above 100 µM. Besides, the IC50 with HIV NL4.3 strain (setting [7]) was above 100 µM.

In data set [1] (setting [6]), `O=C(NCCCN1CCCC1=O)c1cnn(-c2ccccc2)c1` [compound 46935] came in with a CC50 above 100 µM. The IC50 in the data set on HIV NL4.3 strain (setting [7]) was above 100 µM.

Molecule `O=C(NCCCn1cnc2ccccc21)C(c1ccccc1)(c1ccccc1)c1ccccc1` [3-68] displayed a CC50 in data set [1] (setting [2]) of 20 to 50 µM. For the same molecule, the IC50 with HIV NL4.3 strain (setting [3]) lay within 10 to 30 µM.

`O=C(NCCCN1CCCC1=O)c1cn(-c2ccccc2)c2ccc(F)cc12` [compound 46880] returned a CC50 in data set [1] (setting [6]) of 50 to 100 µM. The IC50 in the data set on HIV NL4.3 strain (setting [7]) was in the range of 50 to 100 µM.

For `CCCC(C(=O)NCCCn1ccnc1C)(c1ccccc1)c1ccccc1` [3-65], the CC50 in data set [1] (setting [2]) lay in the range of 50 to 100 µM. Moreover, the IC50 in the data set with HIV NL4.3 strain (setting [3]) lay in the range of 1 to 10 µM.
